Patent US10894807B2 (Siemens Medical Solutions USA, Inc., priority 2011, dated 2021)
pKi: −log10 of the molar value.

Target: human PSMA (Homo sapiens (Human), UniProt Q04609)
Assay: Enzymatic assay for in vitro evaluation of PSMA inhibitors (fluorescent assay of PSMA activity, NAAG substrate, OPA detection of glutamate)
Type: biochemical
Details: for PSMA Blkg % (10 μM): compound at 10 μM

Sequence of human PSMA (Q04609 whole entry): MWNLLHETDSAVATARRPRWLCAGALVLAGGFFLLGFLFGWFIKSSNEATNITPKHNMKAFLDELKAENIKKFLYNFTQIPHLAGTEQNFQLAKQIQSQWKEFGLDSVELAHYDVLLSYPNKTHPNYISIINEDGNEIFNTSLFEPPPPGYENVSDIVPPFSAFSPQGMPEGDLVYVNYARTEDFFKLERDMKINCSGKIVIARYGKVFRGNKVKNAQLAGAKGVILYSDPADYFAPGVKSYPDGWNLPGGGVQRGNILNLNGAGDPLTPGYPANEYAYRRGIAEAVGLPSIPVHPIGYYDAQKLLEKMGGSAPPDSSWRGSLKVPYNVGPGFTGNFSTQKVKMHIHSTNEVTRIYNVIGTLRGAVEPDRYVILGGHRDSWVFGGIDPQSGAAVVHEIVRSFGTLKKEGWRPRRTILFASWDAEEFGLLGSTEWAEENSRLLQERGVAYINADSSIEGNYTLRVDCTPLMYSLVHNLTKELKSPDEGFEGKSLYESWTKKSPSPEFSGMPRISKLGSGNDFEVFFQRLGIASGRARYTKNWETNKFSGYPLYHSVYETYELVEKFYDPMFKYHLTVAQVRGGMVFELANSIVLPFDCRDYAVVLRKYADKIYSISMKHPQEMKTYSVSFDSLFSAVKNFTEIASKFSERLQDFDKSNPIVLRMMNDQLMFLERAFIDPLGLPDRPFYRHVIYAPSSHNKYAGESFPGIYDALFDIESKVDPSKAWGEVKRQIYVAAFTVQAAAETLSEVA

pKi | PSMA Blkg % (10 μM) | Structure (SMILES)
< 6.39 | 80% | O=C(O)CC[C@H](NC(=O)N(O)[C@@H](CCCCNC(=O)c1ccc(NC(=O)c2ccc(F)nc2)cc1)C(=O)O)C(=O)O [P164, (S)-2-(3-((S)-1-Carboxy-5-(4-(6-fluoronicotinamido)benzamido)pentyl)-3-hydroxyureido)pentanedioic Acid]
– | 11% | O=C(O)/C=C/C(=O)N[C@@H](CCC(=O)O)C(=O)O [P165]
< 6.43 | 87% | O=C(O)CC[C@H](NC(=O)N(O)[C@@H](CCCCNC(=O)Cn1cc(CCCF)nn1)C(=O)O)C(=O)O [P166, (S)-2-(3-((S)-1-Carboxy-5-(2-(4-(3-fluoropropyl)-1H-1,2,3-triazol-1-yl)acetamido)pentyl)-3-hydroxyureido)pentanedioic Acid]
< 6.18 | 93% | O=C(O)CC[C@H](NC(=O)N(O)[C@@H](CCCCNC(=O)c1ccc(OCCF)cc1)C(=O)O)C(=O)O [P167, (S)-2-(3-((S)-1-Carboxy-5-(4-(2-fluoroethoxy)benzamido)pentyl)-3-hydroxyureido)pentanedioic Acid]
– | 98% | C#Cc1ccc(C(=O)NCCCC[C@@H](C(=O)O)N(O)C(=O)N[C@@H](CCC(=O)O)C(=O)O)cc1 [P168, (S)-2-(3-((S)-1-Carboxy-5-(4-ethynylbenzamido)pentyl)-3-hydroxyureido)pentanedioic Acid]
6.81 | 79% | O=C(O)CC[C@H](NC(=O)N(O)[C@@H](CCCCNC(=O)c1ccc(F)cc1)C(=O)O)C(=O)O [P169, (S)-2-(3-((S)-1-Carboxy-5-(4-fluorobenzamido)pentyl)-3-hydroxyureido)pentanedioic Acid]
– | 58% | CN(C(=O)[C@H](CC(=O)O)NC(=O)CCc1ccc(-n2cc(CCCF)nn2)cc1)[C@@H](CCC(=O)O)C(=O)O [P170, (S)-2-((S)-3-Carboxy-2-(3-(4-(4-(3-fluoropropyl)-1H-1,2,3-triazol-1-yl)phenyl)propanamido)-N-methylpropanamido)pentanedioic Acid]
– | 87% | O=C(O)CC[C@H](NC(=O)N(O)C(CCCCNC(=O)c1ccc(NC(=O)c2ccc(F)cc2)cc1)C(=O)O)C(=O)O (some centres unmarked) [P171]
– | 31% | CN(C(=O)N[C@@H](CCC(=O)O)C(=O)O)[C@@H](CCCCn1cc(CCCF)nn1)C(=O)O [P173, (S)-2-(3-((S)-1-Carboxy-5-(4-(3-fluoropropyl)-1H-1,2,3-triazol-1-yl)pentyl)-3-methylureido)pentanedioic Acid]
– | 1% | CN(C(=O)[C@H](CC(=O)O)NC(=O)COCCNC(=O)c1ccc(F)cc1)[C@@H](CCC(=O)O)C(=O)O [P174, (S)-2-((S)-3-Carboxy-2-(2-(2-(4-fluorobenzamido)ethoxy)acetamido)-N-methylpropanamido)pentanedioic Acid]
– | 18% | CN(C(=O)N[C@@H](CCC(=O)O)C(=O)O)[C@@H](CCCCNC(=O)NCc1ccccc1)C(=O)O [P175, (9S,13S)-10-Methyl-3,11-dioxo-1-phenyl-2,4,10,12-tetraazapentadecane-9,13,15-tricarboxylic Acid]
– | 77% | CN(C(=O)N[C@@H](CCC(=O)O)C(=O)O)[C@@H](CCCCNC(=O)OCc1ccc([N+](=O)[O-])cc1)C(=O)O [P176, (9S,13S)-10-Methyl-1-(4-nitrophenyl)-3,11-dioxo-2-oxa-4,10,12-triazapentadecane-9,13,15-tricarboxylic Acid]

Structure (SMILES) | pKi | PSMA Blkg % (10 μM)
CN(C(=O)N[C@@H](CCC(=O)O)C(=O)O)[C@@H](CCCCn1cc(COCCOCCNc2ccc([N+](=O)[O-])cc2[N+](=O)[O-])nn1)C(=O)O [P172, (S)-2-(3-((S)-1-Carboxy-5-(4-((2-(2-(2,4-dinitrophenylamino)ethoxy)ethoxy)methyl)-1H-1,2,3-triazol-1-yl)pentyl)-3-methylureido)pentanedioic Acid] | 6.50 | –
